From US6114537A, “Process for scavenging thiols” (Apotex Inc., priority 1997, dated 2000) come the findings set out here.

Bounds are passed on as bounds.

The test system of data set [1] is gastric acid secretion, isolated gastric glands. Kind of data set: In vitro inhibition of gastric acid secretion in isolated mouse gastric glands (14C-aminopyrine accumulation). Format: cell-based. The note with it: 100 μM. On the procedure: Acid secretion is measured indirectly by the accumulation of the weak base ^14 C-aminopyrine in the isolated murine gastric glands of mouse. The assay is performed in polypropylene eppendorf tubes containing 0.5 mL of resuspended mouse gastric glands. In addition, tubes contain the tested drug, acid secretagogues (e.g. histamine, di-butyryl cyclic AMP (cAMP), carbachol) and ^14 C-aminopyrine. Tubes are incubated for 60 min. at 37° C. and continuously rotated. The reaction is stopped by centrifugation of the gland suspension for five min. at 1500 g. Supernatant is aspirated leaving the pellet containing intact gastric glands. The pellet is washed extensively and digested overnight in 1 mL of Protosol (Amersham). After neutralisation with acetic acid and addition of scintillation fluid, the radioactivity is counted in a beta-counter (Beckman). The amount of radioactivity trapped in the pellet corresponds directly with the amount of acid being secreted. Each experimental point is done in triplicate. In each experiment, energy independent consumption was estimated with 0.1 mM of dinitrophenol and basal acid secretion in the absence of acid stimulants. These values were then subtracted from corresponding results in order to calculate basal or secretagogue stimulated acid secretion. […] Each experiment is repeated a number of times and all results are expressed as a % of the maximum stimulation.

Data set [2] relates to Gastric Acid Secretions. Kind of data set: Effects on gastric acid secretion in rats, dose-dependent study (histamine-stimulated). In kind it is in vivo, Sprague-Dawley rats. Conditions: 3, 30, 300 μmol/kg doses, oral, anesthetized rats; histamine 5 mg/kg i.v. On the procedure: Effects of compounds of Formula I on Gastric Acid Secretions in Rats (Dose-dependent study)
Fasted, adult (140-240 g), male, Sprague-Dawley rats were fasted for 24 h from food, but not water, and then treated by oral gavage with 1 to 1.5 mL total volume of 4 different doses (0.3, 3, 30, and 300 μmol/kg) of each compound on different days. Two hours later, rats were anesthetized with a combination of pentobartital and thiopental, the abdomen was opened and the pylorus was ligated, and tracheal, gastric, and peripheral venous canulas were placed. The stomachs were lavaged with 10 mL 0.9% saline every 10 min. for 30 min and the gastric effluent collected in receptacles. Acid output was determined in each gastric effluent sample by back-titration to pH 7.0 using 0.02M NaOH. Then, 5 mL of an […] meal (pH 5.5) was instilled into the stomachs, mixed, and drained after 10 min each time for 2 hours. Acid output was determined in each gastric effluent sample by back-titration to pH 7.0 using 0.02 M NaOH. After measuring basal acid output for at least 30 minutes, acid output was then measured during a 2 h intravenous infusion of histamine (5 mg/kg).

The subject of data set [3] is Gastric Acid Secretions. The data set can be described thus: Effects on (meal-stimulated) gastric acid secretion in rats. In kind it is in vivo, Sprague-Dawley rats. On the procedure: Effects of compounds of Formula I on Gastric Acid Secretions in Rats
Fasted, adult (140-240 g), male, Sprague-Dawley rats were fasted for 24 h from food, but not water, and then treated by oral gavage with 1 to 1.5 mL total volume of compound of Formula I (300 μmmol/Kg) on different days. Two hours later, rats were anesthetized with a combination of pentobartital and thiopental, the abdomen was opened and the pylorus was ligated, and tracheal, gastric, and peripheral venous canulas were placed. The stomachs were lavaged with 10 mL 0.9% saline every 10 min. for 30 min and the gastric effluent collected in receptacles to determine the basal acid secretion. Acid output was determined in each gastric effluent sample by back-titration to pH 7.0 using 0.02M NaOH. Then, 5 mL of an 8% peptone meal (pH 5.5) was instilled into the stomachs, mixed, and drained after 10 min each time for 2 hours. Acid output was determined in each gastric effluent containing the peptone meal by back-titration to pH 5.5 using 0.02 M NaOH.

The nature of a further data set: Solubility in water. In kind it is physicochemical.
Data set [4] in a line: Acid stability in 6 molar hydrochloric acid. In kind it is physicochemical. The note with it: room temperature. On the procedure:
Acid stability of 7-methoxy-3-[(4-methoxy-3,5-dimethyl-2-pyridyl)oxomethyl]-1,2,4-thiadiazolo[4,5-a]benzimidazole.
To examine acid stability of the captioned compound, the compound was dissolved in a minimum volume of methanol and the resulting solution was added to a 6 molar solution of hydrochloric acid.

Data set [5] in a line: Reaction with phenethyl mercaptan (thiol model for the H+/K+-ATPase). Format: physicochemical. The note with it: in methanol. The text has this: The reactivity of the compounds in the process of the invention can be illustrated by means of their reaction with phenethyl mercaptan. This is generally illustrated in FIG. 1 of the accompanying drawings, with R of the thiol reagent representing a phenethyl group. In addition, based on prior art (Im et al., J. Biol. Chem., 1985, 260, 4591; Sturm et al., J. Org. Chem., 1987, 52, 4573; Lorentzon et al., Biochim., Biophys. Acta, 1985, 817, 25), phenethylmercaptan is useful as a model for the H^+ /K^+ -ATPase to examine the reactivity of compounds towards thiol group(s) of the enzyme. […] The compound of formula XI reacts with an additional mole of phenethyl mercaptan to produce a compound of formula XII which decomposes to give compounds of formula XIII and XIV.
A minimum of two moles of phenethyl mercaptan for 1 mole of substrate is required to effect the ring opening of 1,2,4-thiadiazolo[4,5-a]benzimidazoles to give the compound of formula XII. In general, the ring opening reaction is slow with two moles of phenethyl mercaptan. The reaction rate increases rapidly when a large excess of phenethyl mercaptan (for example, 25 fold) is used. […] This degradation of the trapped thiol intermediate to form the disulfide has also been observed in the chemical model for the H^+ /K^+ -ATPase (Lindberg et al., J. Med. Chem., 1986, 29, 1329). […]

In the case of `CN1CCN(c2nsc3nc4ccccc4n23)CC1.Cl.Cl` [3-(4-methyl-1-piperazinyl)-1,2,4-thiadiazolo [4,5-a]benzimidazole dihydrochloride], the “inhibition of cAMP stimulated acid secretion” value in data set [1] (cAMP stimulated) is given as “completely inhibited”. The “inhibition of histamine stimulated acid secretion” value in data set [1] (histamine stimulated) is on record as “completely inhibited”.

As for `COc1ccc2c(c1)nc1snc(C(=O)c3ncc(C)c(OC)c3C)n12` [7-methoxy-3-[(4-methoxy-3,5-dimethyl-2-pyridyl)oxomethyl]-1,2,4-thiadiazolo[4,5-a]benzimidazole], the “inhibition of histamine-stimulated acid secretion” value in the data set with Gastric Acid Secretions [2] is listed as “significant (p<0.05) inhibition”. The “inhibition of meal-stimulated acid secretion” value in the data set on Gastric Acid Secretions [3] (300 μmmol/Kg, rats, oral) was “significant (p<0.05) inhibition”. For the same compound, in the data set with Gastric Acid Secretions [3] (after 1 h, oral gavage, rats, 300 μmmol/Kg, vehicle 160 numol/30 min), the “level of acid output, peptone stimulated” value worked out at 20 μmmol/30 min. In addition, the “suppression of gastric acid secretion in animal model” value in the data set on Gastric Acid Secretions [3] (animal model) was “active in the suppression of gastric acid secretion”. In addition, the solubility in water entry in the data set “Solubility in water” was “limited solubility in water”. Also, the “recovery after stirring in acid” value in data set [4] (48 hours) was “totally recovered”. The acid stability result in data set [4] is “very stable in acid”.

`CN(C)c1nsc2nc3ccccc3n12` [Me2 N, 3-(dimethylamino)-1,2,4-thiadiazolo[4,5-a]benzimidazole]: the “time to complete reaction with phenethyl mercaptan” value in data set [5] was no more than 1 min.

Regarding `COc1nsc2nc3ccccc3n12` [MeO, 3-methoxy-1,2,4-thiadiazolo[4,5-a]benzimidazole], the “time to complete reaction with phenethyl mercaptan” value in data set [5] is no more than 1 min.
